Results: patent publication US10660877B2 (BRISTOL-MYERS SQUIBB COMPANY, priority 2016, dated 2020)
Read-outs that look alike come from different tables or passages of the source.

What was measured:
[1] = molecular target: human TLR7 (Homo sapiens (Human), UniProt Q9NYK1); assay: TLR7 inhibition reporter assay (HEK-Blue cells, SEAP reporter, gardiquimod stimulation); format: cell-based
[2] = molecular target: human TLR9 (Homo sapiens (Human), UniProt Q9NR96); assay: TLR9 inhibition reporter assay (HEK-Blue cells, SEAP reporter, ODN2006 stimulation);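 also: compounds tested over 0.05 nM to 50 µM, 22 h incubation, inhibition taken as SEAP signal drop from agonist plus DMSO wells toward a known inhibitor control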
[3] = molecular target: human TLR8 (Homo sapiens (Human), UniProt Q9NR97); assay: TLR8 inhibition reporter assay (HEK-Blue cells, SEAP reporter, R848 stimulation);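 also: compounds tested from 0.05 nM to 50 µM, 22 h at 37 °C, SEAP measured with HEK-Blue Detection, inhibition relative to agonist plus DMSO versus a known inhibitor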
[4] = HEK-Blue cells overexpressing human TLR7, gardiquimod 7.5 μM
[5] = read-out: TLR9 IC50, HEK-Blue cells overexpressing human TLR9, ODN2006 5 nM
[6] = read-out: TLR8 IC50, HEK-Blue cells overexpressing human TLR8, R848 15.9 μM
[7] = HEK-Blue cells, gardiquimod 7.5 μM
[8] = read-out: TLR9 IC50, HEK-Blue cells, ODN2006 5 nM
[9] = read-out: TLR8 IC50, HEK-Blue cells, R848 15.9 μM
[10] = TLR9 IC50, HEK-Blue cells overexpressing human TLR9, ODN2006 5 nM
[11] = TLR8 IC50, HEK-Blue cells overexpressing human TLR8, R848 15.9 μM

Chain of human TLR8 (Q9NR97 27-1041): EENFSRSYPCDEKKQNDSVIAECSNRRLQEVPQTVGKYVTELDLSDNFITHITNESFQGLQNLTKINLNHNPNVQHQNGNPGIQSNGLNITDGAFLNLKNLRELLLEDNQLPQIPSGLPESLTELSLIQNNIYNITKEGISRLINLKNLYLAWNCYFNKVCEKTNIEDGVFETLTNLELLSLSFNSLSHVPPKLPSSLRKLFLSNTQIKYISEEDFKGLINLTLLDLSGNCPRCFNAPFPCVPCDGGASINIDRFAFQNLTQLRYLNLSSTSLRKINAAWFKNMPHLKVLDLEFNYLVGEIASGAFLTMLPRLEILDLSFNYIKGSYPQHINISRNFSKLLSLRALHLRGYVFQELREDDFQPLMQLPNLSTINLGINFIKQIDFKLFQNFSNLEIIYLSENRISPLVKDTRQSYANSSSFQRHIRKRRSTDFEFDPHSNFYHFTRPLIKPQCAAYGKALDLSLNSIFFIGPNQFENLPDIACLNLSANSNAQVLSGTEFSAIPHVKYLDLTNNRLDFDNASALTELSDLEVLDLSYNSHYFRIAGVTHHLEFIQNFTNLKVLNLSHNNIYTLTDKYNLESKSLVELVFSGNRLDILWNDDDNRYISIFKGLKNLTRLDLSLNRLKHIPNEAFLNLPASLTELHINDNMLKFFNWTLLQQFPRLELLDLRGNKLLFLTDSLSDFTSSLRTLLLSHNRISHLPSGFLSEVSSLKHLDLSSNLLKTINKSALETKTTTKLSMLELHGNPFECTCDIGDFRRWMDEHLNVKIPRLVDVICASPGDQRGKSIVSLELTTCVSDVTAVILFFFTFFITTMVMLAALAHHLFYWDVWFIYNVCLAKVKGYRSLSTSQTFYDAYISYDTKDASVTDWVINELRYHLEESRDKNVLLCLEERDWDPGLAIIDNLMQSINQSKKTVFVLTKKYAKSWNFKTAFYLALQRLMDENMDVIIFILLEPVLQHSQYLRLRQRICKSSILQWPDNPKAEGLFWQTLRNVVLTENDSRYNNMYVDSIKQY
Chain of human TLR7 (Q9NYK1 27-1049): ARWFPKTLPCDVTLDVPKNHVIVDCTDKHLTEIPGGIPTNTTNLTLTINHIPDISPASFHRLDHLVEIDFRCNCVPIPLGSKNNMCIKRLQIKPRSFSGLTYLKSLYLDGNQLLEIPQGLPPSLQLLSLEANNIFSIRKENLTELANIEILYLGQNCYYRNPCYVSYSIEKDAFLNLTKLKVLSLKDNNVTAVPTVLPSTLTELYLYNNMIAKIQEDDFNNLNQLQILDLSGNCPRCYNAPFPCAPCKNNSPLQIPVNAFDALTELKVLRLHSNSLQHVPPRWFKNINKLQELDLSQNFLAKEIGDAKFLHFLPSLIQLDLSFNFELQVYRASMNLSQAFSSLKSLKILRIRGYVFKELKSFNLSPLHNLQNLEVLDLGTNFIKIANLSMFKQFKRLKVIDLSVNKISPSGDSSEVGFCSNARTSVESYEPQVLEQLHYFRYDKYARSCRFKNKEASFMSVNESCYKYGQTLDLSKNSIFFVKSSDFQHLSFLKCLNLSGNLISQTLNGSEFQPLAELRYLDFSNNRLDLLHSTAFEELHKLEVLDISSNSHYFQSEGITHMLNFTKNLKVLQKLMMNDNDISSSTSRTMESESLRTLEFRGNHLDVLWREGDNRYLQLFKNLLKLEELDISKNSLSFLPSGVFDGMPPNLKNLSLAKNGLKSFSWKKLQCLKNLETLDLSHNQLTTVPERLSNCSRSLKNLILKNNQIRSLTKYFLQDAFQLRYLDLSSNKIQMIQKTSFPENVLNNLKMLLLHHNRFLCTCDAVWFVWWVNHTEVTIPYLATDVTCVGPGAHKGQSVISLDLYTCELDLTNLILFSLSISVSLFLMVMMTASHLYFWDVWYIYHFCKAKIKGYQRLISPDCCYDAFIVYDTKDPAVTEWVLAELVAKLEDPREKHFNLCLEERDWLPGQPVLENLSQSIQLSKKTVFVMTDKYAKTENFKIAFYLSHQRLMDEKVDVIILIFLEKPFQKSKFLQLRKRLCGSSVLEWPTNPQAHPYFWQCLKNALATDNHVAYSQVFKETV
Chain of human TLR9 (Q9NR96 26-1032): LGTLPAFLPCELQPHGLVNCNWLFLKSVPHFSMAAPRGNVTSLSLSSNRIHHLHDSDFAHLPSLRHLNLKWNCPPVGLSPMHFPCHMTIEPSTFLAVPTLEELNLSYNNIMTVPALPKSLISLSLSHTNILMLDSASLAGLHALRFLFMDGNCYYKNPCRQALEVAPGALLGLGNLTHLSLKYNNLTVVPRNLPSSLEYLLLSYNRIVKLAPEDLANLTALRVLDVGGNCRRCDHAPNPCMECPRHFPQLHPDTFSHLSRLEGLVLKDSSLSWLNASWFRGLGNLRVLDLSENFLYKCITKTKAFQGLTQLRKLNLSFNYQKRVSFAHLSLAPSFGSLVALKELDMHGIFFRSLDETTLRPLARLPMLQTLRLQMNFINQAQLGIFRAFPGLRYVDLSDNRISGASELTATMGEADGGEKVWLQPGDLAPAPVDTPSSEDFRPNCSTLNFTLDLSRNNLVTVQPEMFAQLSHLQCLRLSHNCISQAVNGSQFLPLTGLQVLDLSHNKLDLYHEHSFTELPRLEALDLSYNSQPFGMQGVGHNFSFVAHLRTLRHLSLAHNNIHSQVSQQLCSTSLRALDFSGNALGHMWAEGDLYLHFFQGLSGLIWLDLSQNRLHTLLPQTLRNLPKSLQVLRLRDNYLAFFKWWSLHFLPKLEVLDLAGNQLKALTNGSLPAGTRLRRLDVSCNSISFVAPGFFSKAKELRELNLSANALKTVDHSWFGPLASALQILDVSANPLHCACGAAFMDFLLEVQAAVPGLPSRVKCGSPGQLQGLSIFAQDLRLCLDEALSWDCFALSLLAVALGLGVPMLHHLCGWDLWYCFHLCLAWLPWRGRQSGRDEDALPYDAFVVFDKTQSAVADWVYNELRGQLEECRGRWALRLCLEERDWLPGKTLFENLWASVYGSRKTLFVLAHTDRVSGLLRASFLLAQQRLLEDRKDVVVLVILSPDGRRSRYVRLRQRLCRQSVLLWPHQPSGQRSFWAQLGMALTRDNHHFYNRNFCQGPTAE

Structure (SMILES)	IC50 [1, 4]	IC50 [2, 5]	IC50 [3, 6]	IC50 [1, 7]	IC50 [2, 8]	IC50 [3, 9]	IC50 [2, 10]	IC50 [3, 11]
Cc1cc(-c2[nH]c3ccc(C4CCN(C(=O)C5CCN(C(C)C)CC5)CC4)cc3c2C(C)C)cc(C)n1 [Example 497, (4-(2-(2,6-dimethylpyridin-4-yl)-3-isopropyl-1H-indol-5-yl)piperidin-1-yl)(1-isopropylpiperidin-4-yl)methanone]	2.7 nM	266 nM	13.1 nM					
Cc1cc(-c2[nH]c3cc(F)c(C4CCNCC4)cc3c2C(C)C)cc(C)n1 [Example 78, 2-(2,6-dimethylpyridin-4-yl)-6-fluoro-3-isopropyl-5-(piperidin-4-yl)-1H-indole]	0.8 nM	145 nM	2.7 nM					
Cc1cc(-c2[nH]c3ccc(C4CCN(C(=O)c5ccc6ccccn6c5=O)CC4)cc3c2C(C)C)cc(C)n1 [Example 145, 3-(4-(2-(2,6-dimethylpyridin-4-yl)-3-isopropyl-1H-indol-5-yl)piperidine-1-carbonyl)-4H-quinolizin-4-one]	28.7 nM	> 50000 nM	347 nM					
Cc1cc(-c2[nH]c3ccc(C4CCN(C(=O)C(=O)N5CCN(C)CC5)CC4)cc3c2C(C)C)cc(C)n1 [Example 856, 1-(4-(2-(2,6-dimethylpyridin-4-yl)-3-isopropyl-1H-indol-5-yl)piperidin-1-yl)-2-(4-methylpiperazin-1-yl)ethane-1,2-dione]				2.9 nM	832 nM	30.6 nM		
Cc1cc(-c2[nH]c3cc(F)c(C4CCNCC4)cc3c2C(C)C)c(F)cn1 [Example 79, 6-fluoro-2-(5-fluoro-2-methylpyridin-4-yl)-3-isopropyl-5-(piperidin-4-yl)-1H-indole]	1.5 nM	1350 nM	2 nM					
Cc1cc(-c2[nH]c3ccc(C4CCN(C5CCOCC5)CC4)cc3c2C(C)C)ccn1 [Example 710, 3-isopropyl-2-(2-methylpyridin-4-yl)-5-(1-(tetrahydro-2H-pyran-4-yl)piperidin-4-yl)-1H-indole]	8 nM	554 nM	3 nM					
Cc1cc(-c2[nH]c3ccc(C4CCN(C(=O)CN(C)C)CC4)cc3c2C(C)C)c(C)cn1 [Example 585, 2-(dimethylamino)-1-(4-(2-(2,5-dimethylpyridin-4-yl)-3-isopropyl-1H-indol-5-yl)piperidin-1-yl)ethan-1-one]	10.8 nM	1670 nM	5.2 nM					
Cc1cc(-c2[nH]c3ccc(C4CCN(CC(=O)N5CCCC(F)(F)C5)CC4)cc3c2C(C)C)cc(C)n1 [Example 285, 1-(3,3-difluoropiperidin-1-yl)-2-(4-(2-(2,6-dimethylpyridin-4-yl)-3-isopropyl-1H-indol-5-yl)piperidin-1-yl)ethan-1-one]	4 nM	423 nM	13.9 nM					
Cc1cc(-c2[nH]c3ccc(C4CCN(C(=O)CN(C)C)CC4)cc3c2CC(F)F)cc(C)n1 [Example 533, 1-(4-(3-(2,2-difluoroethyl)-2-(2,6-dimethylpyridin-4-yl)-1H-indol-5-yl)piperidin-1-yl)-2-(dimethylamino)ethan-1-one]	77.8 nM	1480 nM	285 nM					
CO[C@@H]1C[C@H](CO)N(CC(=O)N2CCC(c3ccc4[nH]c(-c5cc(C)nc(C)c5)c(C(C)C)c4c3)CC2)C1 [Example 395, 1-(4-(2-(2,6-dimethylpyridin-4-yl)-3-isopropyl-1H-indol-5-yl)piperidin-1-yl)-2-((2R,4R)-2-(hydroxymethyl)-4-methoxypyrrolidin-1-yl)ethan-1-one]	9.7 nM	995 nM	41.1 nM					
Cc1cc(-c2[nH]c3ccc(C4CCN(Cc5cc(C)on5)CC4)cc3c2C(C)C)cc(C)n1 [Example 443, 3-((4-(2-(2,6-dimethylpyridin-4-yl)-3-isopropyl-1H-indol-5-yl)piperidin-1-yl)methyl)-5-methylisoxazole]	22.9 nM	1680 nM	10.9 nM					
CCc1c(-c2ccnc(C)c2)[nH]c2ccc(C3CCN(C(=O)C4CNC4)CC3)cc12 [Example 630, azetidin-3-yl (4-(3-ethyl-2-(2-methylpyridin-4-yl)-1H-indol-5-yl)piperidin-1-yl)methanone]	70.4 nM	333 nM	40.2 nM					
Cc1cc(-c2[nH]c3ccc(C4CCN(C(=O)Cc5cc(N)n[nH]5)CC4)cc3c2C(C)C)cc(C)n1 [Example 139, 2-(3-amino-1H-pyrazol-5-yl)-1-(4-(2-(2,6-dimethylpyridin-4-yl)-3-isopropyl-1H-indol-5-yl)piperidin-1-yl)ethan-1-one]	5.7 nM						8860 nM	47.7 nM
Cc1ccc(CN2CCC(c3ccc4[nH]c(-c5cc(C)nc(C)c5)c(C(C)C)c4c3)CC2)cn1 [Example 437, 2-(2,6-dimethylpyridin-4-yl)-3-isopropyl-5-(1-((6-methylpyridin-3-yl)methyl)piperidin-4-yl)-1H-indole]	8.6 nM	267 nM	6.7 nM					
Cc1cc(-c2[nH]c3ccc(C4CCN(Cc5ncon5)CC4)cc3c2C(C)C)c(C)cn1 [Example 734, 3-((4-(2-(2,5-dimethylpyridin-4-yl)-3-isopropyl-1H-indol-5-yl)piperidin-1-yl)methyl)-1,2,4-oxadiazole]	13.8 nM	8990 nM	6.8 nM					
Cc1cc(-c2[nH]c3ccc(C4CCN(C5CCN(C(C)C)CC5)CC4)cc3c2C)c(C)cn1 [Example 814, 2-(2,5-dimethylpyridin-4-yl)-5-(1′-isopropyl-[1,4′-bipiperidin]-4-yl)-3-methyl-1H-indole]				50.7 nM	101 nM	2.4 nM		
Cc1cc(-c2[nH]c3ccc(C4CCN(C(=O)CNCC(C)O)CC4)cc3c2C(C)C)cc(C)n1 (stereo not drawn) [Example 367, 1-(4-(2-(2,6-dimethylpyridin-4-yl)-3-isopropyl-1H-indol-5-yl)piperidin-1-yl)-2-((2-hydroxypropyl)amino)ethan-1-one]	6.5 nM						1890 nM	54.1 nM
CCN(CCO)CC(=O)N1CCC(c2ccc3[nH]c(-c4cc(C)nc(C)c4)c(C(C)C)c3c2)CC1 [Example 397, 1-(4-(2-(2,6-dimethylpyridin-4-yl)-3-isopropyl-1H-indol-5-yl)piperidin-1-yl)-2-(ethyl(2-hydroxyethyl)amino)ethan-1-one]	2.2 nM	705 nM	18.6 nM					
Cc1cc(-c2[nH]c3ccc(C4CCNCC4)cc3c2C(C)C)c(F)cn1 [Example 16, 2-(5-fluoro-2-methylpyridin-4-yl)-3-isopropyl-5-(piperidin-4-yl)-1H-indole]	1.5 nM	2480 nM	1.4 nM					
Cc1cc(-c2[nH]c3ccc(C4CCN(C(=O)Cn5nnnc5C)CC4)cc3c2C(C)C)cc(C)n1 [Example 159, 1-(4-(2-(2,6-dimethylpyridin-4-yl)-3-isopropyl-1H-indol-5-yl)piperidin-1-yl)-2-(5-methyl-1H-tetrazol-1-yl)ethan-1-one]	4.8 nM	24400 nM	47.2 nM					
Cc1cc(-c2[nH]c3ccc(C4CCN(Cc5nncn5C)CC4)cc3c2C(C)C)c(C)cn1 [Example 736, 2-(2,5-dimethylpyridin-4-yl)-3-isopropyl-5-(1-((4-methyl-4H-1,2,4-triazol-3-yl)methyl)piperidin-4-yl)-1H-indole]	42.3 nM	20100 nM	6.5 nM					
C=C(c1c(-c2cc(C)nc(C)c2)[nH]c2ccc(C3CCNCC3)cc12)C(F)(F)F [Example 91, 2-(2,6-dimethylpyridin-4-yl)-5-(piperidin-4-yl)-3-(3,3,3-trifluoroprop-1-en-2-yl)-1H-indole]	3.2 nM	92 nM	15.3 nM					
Cc1cc(-c2[nH]c3ccc(C4CCN(C(=O)CN(C)CCCO)CC4)cc3c2C(C)C)cc(C)n1 [Example 411, 1-(4-(2-(2,6-dimethylpyridin-4-yl)-3-isopropyl-1H-indol-5-yl)piperidin-1-yl)-2-((3-hydroxypropyl)(methyl)amino)ethan-1-one]	2.9 nM	1230 nM	24 nM					
Cc1cc(-c2[nH]c3ccc(C4CCN(C(=O)CN5CCC(F)(F)CC5)CC4)cc3c2C(C)C)cc(C)n1 [Example 362, 2-(4,4-difluoropiperidin-1-yl)-1-(4-(2-(2,6-dimethylpyridin-4-yl)-3-isopropyl-1H-indol-5-yl)piperidin-1-yl)ethan-1-one]	33.6 nM	16100 nM	55.1 nM					
Cc1cc(-c2[nH]c3ccc(C4CCNC(=O)C4)cc3c2C(C)C)ccn1 (stereo not drawn) [Example 490, 4-(3-isopropyl-2-(2-methylpyridin-4-yl)-1H-indol-5-yl)piperidin-2-one]	186 nM	> 50000 nM	67.4 nM					
Cc1cc(-c2[nH]c3ccc(C4CCN(Cc5c[nH]c(C)n5)CC4)cc3c2CC(F)F)cc(C)n1 [Example 538, 3-(2,2-difluoroethyl)-2-(2,6-dimethylpyridin-4-yl)-5-(1-((2-methyl-1H-imidazol-4-yl)methyl)piperidin-4-yl)-1H-indole]	39.6 nM	69 nM	34.6 nM					
Cc1cc(-c2[nH]c3ccc(C4CCN(C(=O)C(=O)N(C)C)CC4)cc3c2C(C)C)ccn1 [Example 878, 2-(4-(3-isopropyl-2-(2-methylpyridin-4-yl)-1H-indol-5-yl)piperidin-1-yl)-N,N-dimethyl-2-oxoacetamide]				55.1 nM	28000 nM	175 nM		
